In BindingDB's records for doi:10.1021/jm300535s (Leipzig University, 2012):

Target: Neuropeptide FF receptor 1 (Homo sapiens, UniProt Q9GZQ6)
Experiment: Competitive antagonist activity at human NPFF1 receptor expressed in COS1 cells assessed as inhibition of NPVF-induced [3H]inositol phosphate accumulation after 2 hrs by liquid scintillation counting

Chain of Neuropeptide FF receptor 1 (Q9GZQ6 whole entry): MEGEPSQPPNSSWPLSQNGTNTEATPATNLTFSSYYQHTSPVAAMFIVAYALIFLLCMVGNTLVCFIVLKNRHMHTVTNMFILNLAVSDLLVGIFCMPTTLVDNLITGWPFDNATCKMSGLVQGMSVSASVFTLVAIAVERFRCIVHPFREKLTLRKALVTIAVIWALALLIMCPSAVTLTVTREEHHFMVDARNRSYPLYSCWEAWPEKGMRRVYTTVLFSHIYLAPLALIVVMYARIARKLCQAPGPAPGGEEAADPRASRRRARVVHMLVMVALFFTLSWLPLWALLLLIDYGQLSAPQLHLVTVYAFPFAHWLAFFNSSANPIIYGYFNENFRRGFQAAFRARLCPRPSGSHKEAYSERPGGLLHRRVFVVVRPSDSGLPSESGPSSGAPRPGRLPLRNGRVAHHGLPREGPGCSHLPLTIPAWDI

Kd: 41.7 nM
SMILES: NC(N)=NN=CC12CC3CC(CC(C3)C1)C2
